Source: patent publication US20050113397A1, “Imidazo[1,2-a]pyridine derivative” (priority 2002, published 2005)
≈ marks a conversion by molar mass, not a printed value.

How the values were obtained:
Assay in all cases: Antifungal activity (MIC), US NCCLS Standard Method M27-A, yeasts
Assay type in all cases: cell-based
[1] = test system: Candida glabrata; settings: for MIC: Nakaseomyces glabratus, read-out: MIC (minimal inhibitory concentration for growth)
Protocol: (§1) The antifungal activity of the compound of the invention was determined according to the US NCCLS Standard Method (M27-A, 1997) against yeasts (Candida, Cryptococcus); and according to the US NCCLS Standard Method (M38-P, 1998) against molds (Aspergillus). The result is expressed in values of MIC (minimal inhibitory concentration for growth, μg/ml) in Table 7.

[2] = test system: Candida krusei; settings: for MIC: Pichia kudriavzevii, read-out: MIC (minimal inhibitory concentration for growth)
Protocol: as §1

[3] = test system: Saccharomyces cerevisiae; settings: for MIC: read-out: MIC (minimal inhibitory concentration for growth)
Protocol: as §1

Row | SMILES | MIC (minimal inhibitory concentration for growth) [1] [µg/mL] | MIC (minimal inhibitory concentration for growth) [2] [µg/mL] | MIC (minimal inhibitory concentration for growth) [3] [µg/mL] | MIC [1] [µg/mL] | MIC [2] [µg/mL] | MIC [3] [µg/mL]
1 | Cc1c(CCO)c(N2CC[C@H](N(C)C)C2)n2c(nc3ccccc32)c1C#N [Example 66, 1-[(3S)-dimethylaminopyrrolidin-1-yl]-2-(2-hydroxyethyl)-3-methylpyrido[1,2-a]benzimidazole-4-carbonitrile] | 32 | 16 | 16 |  |  | 
2 | Cc1c(-c2ccccc2)c(N2CC[C@H](N(C)C)C2)n2c(nc3ccccc32)c1C#N.O=CO [Example 6] | <0.063 | 0.5 | <0.063 |  |  | 
3 | CCc1c(C)c(C#N)c2nc3ccccc3n2c1NCCN(CC)CC [Example 1, 1-(2-N′,N′-Diethylaminoethylamino)-2-ethyl-3-methylpyrido[1,2-a]benzimidazole-4-carbonitrile] | 2 | 8 | 16 |  |  | 
4 | CCc1c(C)c(C#N)c2nc3ccccc3n2c1C1=CC(N)CC1 (stereo not drawn) [Example 95, 1-(3-Amino-1-cyclopenten-1-yl)-2-ethyl-3-methylpyrido[1,2-a]benzimidazole-4-carbonitrile] |  |  |  | 32 (≈ 101 µM) | 64 (≈ 202 µM) | 16 (≈ 50.6 µM)

Second part, the molecule after the results:

Row | MIC (minimal inhibitory concentration for growth) [1] [µg/mL] | MIC (minimal inhibitory concentration for growth) [2] [µg/mL] | MIC (minimal inhibitory concentration for growth) [3] [µg/mL] | MIC [1] [µg/mL] | MIC [2] [µg/mL] | MIC [3] [µg/mL] | SMILES
5 | 1 | 8 | 2 |  |  |  | Cc1c(C(C)C)c(N2CC[C@H](N(C)C)C2)n2c(nc3ccccc32)c1C#N [Example 87, 2-Isopropyl-1-[(3S)-dimethylaminopyrrolidin-1-yl]-3-methylpyrido[1,2-a]benzimidazole-4-carbonitrile]
6 |  |  |  | 128 (≈ 317 µM) | > 128 | > 32 | CCCCCCc1c(C)c(C#N)c2nc3ccccc3n2c1N1CCCN(C)CC1 [Example 12, 2-n-Hexyl-1-(4-methylhomopiperazin-1-yl)-3-methylpyrido[1,2-a]benzimidazole-4-carbonitrile]
7 |  |  |  | 16 (≈ 39.6 µM) | 32 (≈ 79.3 µM) | 2 (≈ 4.96 µM) | CCCCCCc1c(C)c(C#N)c2nc3ccccc3n2c1N1CC(CN(C)C)C1 [Example 11, 2-n-Hexyl-1-[3-(dimethylaminomethyl)azetidin-1-yl]-3-methylpyrido[1,2-a]benzimidazole-4-carbonitrile]
8 | 16 | >128 | 64 |  |  |  | Cc1c(Cc2cccc(N)c2)c(N2CC[C@H](N(C)C)C2)n2c(nc3ccccc32)c1C#N [Example 60, 2-(3-Aminobenzyl)-1-[(3S)-dimethylaminopyrrolidinyl]-3-methylpyrido[1,2-a]benzimidazole-4-carbonitrile]
